Data taken from publication PMC6727418, “Cyanidin-3-rutinoside acts as a natural inhibitor of intestinal lipid digestion and absorption” (BMC Complementary and Alternative Medicine, 2019).

Assays:
[1] = biological target: T1, porcine pancreatic cholesterol esterase (Sus scrofa, UniProt A0A286ZKB1); assay: colorimetric p-NPB hydrolysis assay, percent inhibition at […]; format: biochemical; conditions: read-out: % inhibition at 1 mM
T1 construct: gene CEL
T1 sequence (A0A286ZKB1 96-682): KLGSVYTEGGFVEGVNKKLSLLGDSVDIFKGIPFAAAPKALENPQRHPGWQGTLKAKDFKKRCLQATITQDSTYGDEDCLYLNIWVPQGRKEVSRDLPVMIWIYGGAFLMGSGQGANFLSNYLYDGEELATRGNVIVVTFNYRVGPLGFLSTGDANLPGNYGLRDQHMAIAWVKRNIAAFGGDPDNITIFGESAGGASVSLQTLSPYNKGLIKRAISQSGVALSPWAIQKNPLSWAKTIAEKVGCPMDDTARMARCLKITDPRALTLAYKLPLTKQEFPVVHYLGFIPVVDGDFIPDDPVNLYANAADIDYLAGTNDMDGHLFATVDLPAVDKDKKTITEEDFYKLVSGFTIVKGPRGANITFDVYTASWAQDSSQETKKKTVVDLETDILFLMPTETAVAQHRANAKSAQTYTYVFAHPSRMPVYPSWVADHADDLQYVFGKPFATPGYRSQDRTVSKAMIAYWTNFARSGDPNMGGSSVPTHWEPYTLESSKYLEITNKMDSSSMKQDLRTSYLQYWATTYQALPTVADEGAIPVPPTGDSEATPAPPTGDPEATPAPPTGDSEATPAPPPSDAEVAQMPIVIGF

[2] = biological target: T2, Porcine pancreatic lipase (Sus scrofa, UniProt P00591); assay: fluorometric 4-MUO hydrolysis assay; Lineweaver-Burk kinetics (Ki […], Ki'[…]); format: biochemical
T2 construct: gene PNLIP
T2 sequence (P00591 1-450): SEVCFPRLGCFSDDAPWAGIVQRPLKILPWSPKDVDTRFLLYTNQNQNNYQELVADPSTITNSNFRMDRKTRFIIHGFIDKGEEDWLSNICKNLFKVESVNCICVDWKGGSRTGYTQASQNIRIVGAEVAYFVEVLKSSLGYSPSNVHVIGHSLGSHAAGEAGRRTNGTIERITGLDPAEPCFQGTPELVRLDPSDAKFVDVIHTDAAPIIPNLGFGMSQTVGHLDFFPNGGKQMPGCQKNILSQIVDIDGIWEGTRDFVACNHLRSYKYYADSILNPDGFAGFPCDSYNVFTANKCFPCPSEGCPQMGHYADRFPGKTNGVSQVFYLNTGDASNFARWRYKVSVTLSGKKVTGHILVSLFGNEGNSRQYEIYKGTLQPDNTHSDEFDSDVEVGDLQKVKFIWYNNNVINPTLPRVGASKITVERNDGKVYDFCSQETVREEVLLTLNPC

SMILES	inhibition at 1000 µM [1]	IC50 [2]
O=C(O)c1cc(O)c(O)c(O)c1 [gallic acid]	~39%	
C[C@@H]1O[C@@H](OC[C@H]2O[C@@H](Oc3cc4c(O)cc(O)cc4[o+]c3-c3ccc(O)c(O)c3)[C@H](O)[C@@H](O)[C@@H]2O)[C@H](O)[C@H](O)[C@H]1O [C3R, Cyanidin-3-rutinoside]		59.4 ± 1.41 µM
